Here are results for 13 molecules from patent US10501460B2, “Heterocyclic compounds and uses thereof” (Plexxikon Inc., priority 2013, dated 2019).

One experiment has as its system bromodomain. Briefly: Bromodomain cell assays of Example 40 (at least one of them). Type of experiment: cell-based. The settings on record: in at least one of the bromodomain cell assays described in Example 40. The gist of the method: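 Growth inhibition: 3000 MV-4-11, MOLM-13, MM.1S or neuroblastoma cells/well got an 8-point 1:3 series from 10 μM top (0.2% DMSO) for 72 h, then CellTiter-Glo luminescence. Myc reporter: MV-4-11 with E-box firefly luciferase, 24 h exposure, One-Glo luminescence plus CellTiter-Fluo cell count. pIC50 from four-parameter fit.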

The test system of the next experiment is MV-4-11. Briefly: Oncology cell growth assay MV-4-11 (CellTiter Glo, 72 hours). The settings on record: Homo sapiens, MV4-11, 72 h; MV-4-11 cell growth inhibitory activity, 3d. Type of experiment: cell-based. The procedure, abridged:
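MV-4-11 cells (MLL-AF4 AML) exposed 72 h to 8-point 1:3 titration, top final 10 μM, 0.2% DMSO. CellTiter Glo luminescence as cell-number readout, normalized to DMSO controls; pIC50 from four-parameter fit.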
(Cellular ATP, detected with luciferase, serves as a proxy for viable cell number.)

For orientation: IC50 means the point on the concentration scale where inhibition reaches its midpoint. Read a low IC50 as inhibition by little substance.

Where only a bound is given, the exact number is not on record here.

For `Cc1noc(C)c1-c1cnc2c(-c3cnn(C(F)F)c3)cn(S(=O)(=O)C3CCC3)c2c1` [P-0134, 4-[1-cyclobutylsulfonyl-3-[1-(difluoromethyl)pyrazol-4-yl]pyrrolo[3,2-b]pyridin-6-yl]-3,5-dimethyl-isoxazole], the IC50 in the experiment with bromodomain was less than 10 µM; with MV-4-11 it was no more than 1 µM.

For `CCCS(=O)(=O)n1cc(-c2cnn(C(F)F)c2)c2ncc(-c3c(C)noc3C)cc21` [P-0135, 4-[3-[1-(difluoromethyl)pyrazol-4-yl]-1-propylsulfonyl-pyrrolo [3,2-b]pyridin-6-yl]-3,5-dimethyl-isoxazole], the IC50 was less than 10 µM in the experiment on bromodomain and no more than 1 µM in the experiment with MV-4-11.

Consider `Cc1noc(C)c1-c1cnc2c(-c3cnn(C(F)F)c3)cn(S(=O)(=O)CCC(F)(F)F)c2c1` [P-0136, 4-[3-[1-(difluoromethyl)pyrazol-4-yl]-1-(3,3,3-trifluoropropylsulfonyl)pyrrolo[3,2-b]pyridin-6-yl]-3,5-dimethyl-isoxazole], for which the values for the concentration for half-maximal inhibition (IC50) in the experiment on bromodomain and in the experiment with MV-4-11 were less than 10 µM and 1 to 10 µM, respectively.

Regarding `C=CCn1cc(-c2cn(S(=O)(=O)CCC)c3cc(-c4c(C)noc4C)cnc23)cn1` [P-0137, 4-[3-(1-allylpyrazol-4-yl)-1-propylsulfonyl-pyrrolo[3,2-b]pyridin-6-yl]-3,5-dimethyl-isoxazole], the half-inhibitory concentration (IC50) in the experiment with bromodomain was less than 10 µM; in the experiment on MV-4-11, no more than 1 µM.

Regarding `C=CCn1cc(-c2cn(S(=O)(=O)C(C)CC)c3cc(-c4c(C)noc4C)cnc23)cn1` (centres unmarked) [P-0138, 4-[3-(1-allylpyrazol-4-yl)-1-sec-butylsulfonyl-pyrrolo[3,2-b]pyridin-6-yl]-3,5-dimethyl-isoxazole], the IC50 with bromodomain is less than 10 µM; in the experiment with MV-4-11 it was no more than 1 µM.

Turning to `C=CCn1cc(-c2cn(S(=O)(=O)C3CC3)c3cc(-c4c(C)noc4C)cnc23)cn1` [P-0139, 4-[3-(1-allylpyrazol-4-yl)-1-cyclopropylsulfonyl-pyrrolo[3,2-b]pyridin-6-yl]-3,5-dimethyl-isoxazole], the IC50 is less than 10 µM with bromodomain and no more than 1 µM in the experiment on MV-4-11.

As to `C=CCn1cc(-c2cn(S(=O)(=O)CC3CC3)c3cc(-c4c(C)noc4C)cnc23)cn1` [P-0140, 4-[3-(1-allylpyrazol-4-yl)-1-(cyclopropylmethylsulfonyl)pyrrolo[3,2-b]pyridin-6-yl]-3,5-dimethyl-isoxazole], the IC50 was less than 10 µM in the experiment with bromodomain and no more than 1 µM in the experiment with MV-4-11.

On to `Cc1noc(C)c1-c1cnc2[nH]cc(Sc3cccc(F)c3)c2c1` [P-0141, 4-[3-(3-fluorophenyl)sulfanyl-1H-pyrrolo[2,3-b]pyridin-5-yl]-3,5-dimethyl-isoxazole], for which the values for the half-maximal inhibitory concentration (IC50) in the experiment with bromodomain and in the experiment with MV-4-11 were less than 10 µM and 1 to 10 µM, respectively.

For `Cc1noc(C)c1-c1cnc2[nH]cc([S+]([O-])c3cccc(F)c3)c2c1` (centres unmarked) [P-0142, 4-[3-(3-fluorophenyl)sulfinyl-1H-pyrrolo[2,3-b]pyridin-5-yl]-3,5-dimethyl-isoxazole], the 50% inhibitory concentration (IC50) was less than 10 µM with bromodomain and 1 to 10 µM in the experiment on MV-4-11.

Turning to `Cc1noc(C)c1-c1cnc2[nH]cc(S(=O)(=O)c3cccc(F)c3)c2c1` [P-0143, 4-[3-(3-fluorophenyl)sulfonyl-1H-pyrrolo[2,3-b]pyridin-5-yl]-3,5-dimethyl-isoxazole], the IC50 is less than 10 µM in the experiment with bromodomain and no more than 1 µM with MV-4-11.

Consider `Cc1noc(C)c1-c1cnc2[nH]cc(Sc3ccccc3)c2c1` [P-0144, 3,5-dimethyl-4-(3-phenylsulfanyl-1H-pyrrolo[2,3-b]pyridin-5-yl)isoxazole], for which the IC50 with bromodomain was less than 10 µM; in the experiment with MV-4-11, 1 to 10 µM.

On to `Cc1noc(C)c1-c1cnc2[nH]cc(S(=O)(=O)c3ccccc3)c2c1` [P-0145, 4-[3-(benzenesulfonyl)-1H-pyrrolo[2,3-b]pyridin-5-yl]-3,5-dimethyl-isoxazole], for which the values for the IC50 with bromodomain and in the experiment with MV-4-11 were less than 10 µM and no more than 1 µM, respectively.

As to `Cc1noc(C)c1-c1cnc2c(-c3cnn(CC(F)(F)F)c3)cn(S(=O)(=O)c3ccccc3)c2c1` [P-0146, 4-[1-(benzenesulfonyl)-3-[1-(2,2,2-trifluoroethyl)pyrazol-4-yl]pyrrolo[3,2-b]pyridin-6-yl]-3,5-dimethyl-isoxazole], the IC50 in the experiment on bromodomain was less than 10 µM; in the experiment with MV-4-11, no more than 1 µM.
